Experimental findings from US12685761B2, “VIP and VIP agonists, nanoparticles, and uses in inflammatory T-cell mediated disease” (Emory University, priority 2018, dated 2026) are described below.

This test relates to VIP-KO B6 recipients. Put plainly: Short-term VIP administration in allo-BMT GvHD lethality model (FIG. 4). Format: in vivo, mice. The note with it: VIP 10 μgram/day vs PBS from day 0 to day 10; lethally irradiated VIP-KO B6 recipients infused with 5M TCD BM plus 3×10^6 B10.BR T cells. The text has this: Lethally irradiated WT and VIP-KO B6 recipients were infused with 5M TCD BM plus 3×10^6 B10.BR T cells.

In the case of vasoactive intestinal peptide [VIP], the “acute GvHD mortality after allo-BMT” value was “rescued VIP-KO recipients from acute GvHD mortality”.
